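Five compound concentrations were applied to cells in 96-well plates for 48 hours; endpoints were derived by simple linear interpolation of the resulting dose-response curve. The concentration for 50% growth inhibition is given as GI50.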 Calls of active or inactive are those of the source. Rule as the data show it: active = GI50 up to about 1.1 µM and inactive = higher.
What was measured:
Assay in all cases: NCI tumour cell line growth inhibition, 48 h
DMS-114 = system: DMS-114
Malme-3M = system: Malme-3M
SK-MEL-2 = system: SK-MEL-2
RPMI-8226 = system: RPMI-8226
SW-620 = system: SW-620
HCC 2998 = system: HCC 2998
M19-MEL = system: M19-MEL
UO-31 = system: UO-31
OVCAR-5 = system: OVCAR-5
SF-539 = system: SF-539
MOLT-4 = system: MOLT-4
SNB-75 = system: SNB-75
A498 = system: A498
TK-10 = system: TK-10
SN12C = system: SN12C
SK-OV-3 = system: SK-OV-3
Hs-578T = system: Hs-578T
MDA-N = system: MDA-N
T47D = system: T47D
NCI/ADR-RES = system: NCI/ADR-RES

Measured: GI50

CSc1nc2nc(C(O)C(O)C(O)CO)cnc2c(=O)[nH]1 (stereo unspecified)
inactive: DMS-114 > 100 µM | Malme-3M > 100 µM | SK-MEL-2 > 100 µM | RPMI-8226 > 100 µM | SW-620 > 100 µM | HCC 2998 > 100 µM | M19-MEL > 100 µM | UO-31 > 100 µM | OVCAR-5 > 100 µM | SF-539 > 100 µM | MOLT-4 > 100 µM | SNB-75 > 100 µM | A498 > 100 µM | TK-10 > 100 µM | SN12C > 100 µM | SK-OV-3 > 100 µM

CC(=O)C1=CSC2[C@H](NC(=O)Cc3ccccc3)C(=O)N2C1C(=O)OC(c1ccccc1)c1ccccc1 (stereo partly specified)
inactive: DMS-114 84.3 µM | Malme-3M > 100 µM | SK-MEL-2 > 100 µM | RPMI-8226 39.5 µM | SW-620 93.5 µM | HCC 2998 > 100 µM | M19-MEL 96.4 µM | UO-31 > 100 µM | SF-539 > 100 µM | MOLT-4 35.8 µM | SNB-75 56.2 µM | A498 > 100 µM | TK-10 > 100 µM | SN12C > 100 µM | SK-OV-3 > 100 µM

COc1ccc(/C=N\O[Si](C)(C)C(C)(C)C)cc1O[Si](C)(C)C(C)(C)C
inactive: DMS-114 18.5 µM | Malme-3M 17.6 µM | SK-MEL-2 16.5 µM | RPMI-8226 17.9 µM | SW-620 18.7 µM | HCC 2998 17.3 µM | M19-MEL 18.2 µM | UO-31 14.7 µM | OVCAR-5 22.4 µM | SF-539 18.5 µM | MOLT-4 17.4 µM | SNB-75 22.3 µM | A498 16.7 µM | TK-10 20.4 µM | SN12C 19.2 µM | SK-OV-3 30.6 µM

COC(=O)c1cc(C)c(C)c2c1NC(=O)CNC2=O
inactive: DMS-114 > 100 µM | SK-MEL-2 > 100 µM | RPMI-8226 > 100 µM | SW-620 > 100 µM | HCC 2998 > 100 µM | M19-MEL > 100 µM | UO-31 33.5 µM | SF-539 > 100 µM | MOLT-4 > 100 µM | SNB-75 > 100 µM | A498 > 100 µM | SN12C > 100 µM

Sc1nnc(COc2ccc(Cl)cc2)[nH]1
inactive: DMS-114 > 100 µM | Malme-3M > 100 µM | SK-MEL-2 > 100 µM | RPMI-8226 > 100 µM | SW-620 > 100 µM | HCC 2998 > 100 µM | M19-MEL > 100 µM | UO-31 > 100 µM | OVCAR-5 > 100 µM | SF-539 > 100 µM | MOLT-4 > 100 µM | SNB-75 > 100 µM | A498 > 100 µM | TK-10 > 100 µM | SN12C > 100 µM | SK-OV-3 > 100 µM

CN(C)/N=N/c1ccc(C(N)=O)cc1
inactive: DMS-114 > 100 µM | Malme-3M > 100 µM | SK-MEL-2 > 100 µM | RPMI-8226 > 100 µM | SW-620 > 100 µM | HCC 2998 > 100 µM | M19-MEL > 100 µM | UO-31 > 100 µM | OVCAR-5 > 100 µM | SF-539 > 100 µM | MOLT-4 > 100 µM | SNB-75 97.7 µM | A498 > 100 µM | TK-10 > 100 µM | SN12C > 100 µM | SK-OV-3 > 100 µM

C=C(C)[C@@H]1CC=C(CO)CC1 [PERILLYL ALCOHOL]
inactive: DMS-114 124 µM | Malme-3M 324 µM | SK-MEL-2 122 µM | RPMI-8226 > 10 µM | SW-620 637 µM | HCC 2998 753 µM | M19-MEL 182 µM | UO-31 410 µM | OVCAR-5 169 µM | Hs-578T > 10 µM | MDA-N > 10 µM | T47D > 10 µM | SF-539 501 µM | MOLT-4 72.3 µM | SNB-75 56 µM | A498 548 µM | TK-10 324 µM | NCI/ADR-RES > 10 µM | SN12C 555 µM | SK-OV-3 748 µM
